Here are results for six compounds from the supplement of paper PMC11061612.

Assay in all cases: Bliss excess, mean over the matrix (fraction); higher = more synergy
Assay [1] concerns KM12 (Colorectal Carcinoma). The essentials: (§1)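 Cell lines in DMEM/F12 or RPMI with 10% FBS were plated in 1536-well plates, held 24 hours at 37°C, 5% CO2, then given two-drug dose matrices for 72 hours (DMSO typically 0.2%). Viability was read by CellTiter-Glo 2.0 luminescence and scaled as inhibition from 0 (vehicle wells) to 1 (blank wells). Combination Emax is the second-highest inhibition in the matrix; Bliss excess is observed combination effect minus expected EA + EB − EA·EB, EA and EB being single-agent effects.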

In the next assay the test system is WIL2-NS (Non-Cancerous). The method, boiled down: as §1
A further assay deals with LN-18 (Glioblastoma). The method, boiled down:
as §1

Assay [2] relates to DND-41 (T-Lymphoblastic Leukemia). The method, boiled down:
as §1

Assay [3] relates to TE-6 (Esophageal Squamous Cell Carcinoma). The essentials: as §1
For assay [4], the system named is MFM-223 (Breast Carcinoma). The essentials: as §1
The subject of assay [5] is NCI-H847 (Small Cell Lung Carcinoma). The essentials:
as §1

Assay [6] has as its system SW1417 (Colorectal Carcinoma). The essentials: as §1
In a further assay the test system is MEL-JUSO (Melanoma). The method, boiled down: as §1
Assay [7] concerns PANC-08-13 (Pancreatic Carcinoma). The method, boiled down:
as §1

The subject of assay [8] is NCI-H1792 (Lung Adenocarcinoma). The essentials: as §1
For another assay, the system named is CHP-212 (Neuroblastoma). The essentials: as §1
Assay [9] deals with KYSE-180 (Esophageal Squamous Cell Carcinoma). The essentials:
as §1

The test system of assay [10] is CAMA-1 (Breast Carcinoma). The essentials: as §1
The subject of assay [11] is DiFi (Colorectal Carcinoma). The essentials:
as §1

Assay [12] has as its system TOV-112D (Ovarian Carcinoma). The essentials: as §1
For assay [13], the system named is BL-41 (Burkitt's Lymphoma). The method, boiled down: as §1
Assay [14] concerns MKN28 (Gastric Carcinoma). The essentials:
as §1

For another assay, the system named is TC-71 (Ewing's Sarcoma). The method, boiled down: as §1
In assay [15] the test system is COLO-678 (Colorectal Carcinoma). The essentials: as §1

In the case of `Cc1c2c(nn1C)CSCc1cc(n(C)n1)CSc1cc(c3ccccc3c1)OCCCc1c(C(=O)O)n(C)c3c-2c(Cl)ccc13` [AZD5991] + CC1(C)CCC(CN2CCN(c3ccc(C(=O)NS(=O)(=O)c4ccc(NCC5CCOCC5)c([N+](=O)[O-])c4)c(Oc4cnc5[nH]ccc5c4)c3)CC2)=C(c2ccc(Cl)cc2)C1 [Venetoclax] (first compound max 1 µM, 7x7, partner max 1 µM), the Bliss excess is 0.0015 in assay [1]; -0.0302 in the assay with WIL2-NS (Non-Cancerous); -0.0167 in the assay on LN-18 (Glioblastoma); 0.044 in assay [2]; -0.157 in assay [3]; -0.0041 in [4]. The Bliss excess in assay [5] was 0.253; in assay [6] it was -0.0294; in the assay with MEL-JUSO (Melanoma), -0.0297; in assay [7] it was -0.0411; in [8], 0.0248; in the assay on CHP-212 (Neuroblastoma), -0.0416. Further, the Bliss excess is 0.0103 in assay [9]; 0.0985 in [10]; 0.0436 in [11]; 0.0582 in assay [12]; 0.0108 in [13]; -0.0332 in assay [14]. Besides, in the assay with TC-71 (Ewing's Sarcoma), the Bliss excess was 0.0733.

As to `Cc1c2c(nn1C)CSCc1cc(n(C)n1)CSc1cc(c3ccccc3c1)OCCCc1c(C(=O)O)n(C)c3c-2c(Cl)ccc13` [AZD5991] + Cn1cnc2c(F)c(Nc3ccc(Br)cc3Cl)c(C(=O)NOCCO)cc21 [Selumetinib] (first compound max 1 µM, 7x7, partner max 3 µM), the Bliss excess is -0.0063 in [1]; -0.0263 in the assay on WIL2-NS (Non-Cancerous); 0.0745 in the assay on LN-18 (Glioblastoma); 0.021 in assay [2]; 0.0043 in [3]; -0.0199 in assay [4]. In addition, the Bliss excess was 0.042 in assay [5]; -0.0015 in assay [6]; 0.0046 with MEL-JUSO (Melanoma); 0.0025 in [7]; 0.0347 in assay [8]; -0.0136 in the assay on CHP-212 (Neuroblastoma). Moreover, the Bliss excess in [9] was 0.0341; in assay [10], -0.035; in [11], 0.0064; in [12] it was 0.0038; in assay [13], -0.0206; in assay [14], -0.0063. Also, the Bliss excess with TC-71 (Ewing's Sarcoma) is 0.093; in assay [15], -0.0226.

In the case of `CN(CCO)CC[C@H](CSc1ccccc1)Nc1ccc(S(=O)(=O)NC(=O)c2ccc(N3CCC([C@@H](O)c4ccccc4-c4ccc(Cl)cc4)CC3)cc2)cc1S(=O)(=O)C(F)(F)F` [AZD4320] + Cn1cnc2c(F)c(Nc3ccc(Br)cc3Cl)c(C(=O)NOCCO)cc21 [Selumetinib] (first compound max 1 µM, 7x7, partner max 3 µM), the Bliss excess was 0.0423 in assay [1]; 0.0074 in the assay on WIL2-NS (Non-Cancerous); 0.031 in the assay on LN-18 (Glioblastoma); -0.0181 in [2]; -0.0277 in [3]; -0.0146 in assay [4]. Also, the Bliss excess is 0.0247 in [5]; 0.056 in [6]; -0.0081 in the assay on MEL-JUSO (Melanoma); 0.0195 in [7]; 0.0416 in assay [8]; -0.0108 in the assay with CHP-212 (Neuroblastoma). Besides, the Bliss excess in assay [9] worked out at 0.0148; in assay [10], 0.0043; in assay [11], 0.0838; in assay [12], 0.0107; in [13] it was 0.039; in assay [14] it was 0.0272. Also, the Bliss excess with TC-71 (Ewing's Sarcoma) stood at 0.0614; in assay [15], 0.0536.

Consider `COc1cc2c(cc1OCCCCCOc1cc3c(cc1OC)C(=O)N1C=C(C)C[C@H]1C=N3)N=C[C@@H]1CC(C)=CN1C2=O` [SG3199] + O=C(c1cc(Cc2n[nH]c(=O)c3ccccc23)ccc1F)N1CCN(C(=O)C2CC2)CC1 [Olaparib] (first compound max 0.001 µM, 7x7, partner max 10 µM), for which the Bliss excess in assay [1] was -0.0301; in the assay on WIL2-NS (Non-Cancerous), -0.0239; in the assay on LN-18 (Glioblastoma), -0.0119; in assay [2], -0.0067; in assay [3], -0.0256; in assay [4], -0.0307. For the same compound, the Bliss excess in assay [5] was -0.0375; in assay [6], -0.0472; with MEL-JUSO (Melanoma), -0.024; in assay [7], -0.0319; in [8] it was -0.0479; in the assay with CHP-212 (Neuroblastoma), 0.0046. Moreover, the Bliss excess was -0.0177 in [9]; -0.0443 in assay [10]; -0.0495 in [11]; -0.0167 in assay [12]; -0.0163 in assay [13]; -0.0469 in assay [14]. Also, the Bliss excess in the assay on TC-71 (Ewing's Sarcoma) was -0.0224; in assay [15] it was -0.0144.

On to `CN(CCO)CC[C@H](CSc1ccccc1)Nc1ccc(S(=O)(=O)NC(=O)c2ccc(N3CCC([C@@H](O)c4ccccc4-c4ccc(Cl)cc4)CC3)cc2)cc1S(=O)(=O)C(F)(F)F` [AZD4320] + C1CN(CCC1(C(=O)N[C@@H](CCO)C2=CC=C(C=C2)Cl)N)C3=NC=NC4=C3C=CN4 [Capivasertib] (first compound max 1 µM, 7x7, partner max 3 µM), for which the Bliss excess in assay [1] is -0.0572; in the assay on WIL2-NS (Non-Cancerous), 0.0219; in the assay with LN-18 (Glioblastoma) it was -0.053; in assay [2], -0.0205; in assay [3] it was 0.0377; in assay [4] it was -0.01. For the same compound, the Bliss excess was 0.0226 in [5]; -0.0671 in [6]; -0.0472 in the assay with MEL-JUSO (Melanoma); -0.0374 in assay [7]; -0.0643 in assay [8]; -0.0667 with CHP-212 (Neuroblastoma). The Bliss excess in assay [9] was -0.0057; in [10], -0.0365; in [11], -0.0475; in [12], -0.0183; in assay [13] it was -0.0146; in assay [14], -0.0404. Moreover, the Bliss excess with TC-71 (Ewing's Sarcoma) was -0.0699; in assay [15] it was -0.0741.

With `CN(C)CCCOc1ccc(-c2ccc3ncc4c(c3c2)n(C2CCOCC2)c(=O)n4C)cn1` [AZD0156] + O=C(c1cc(Cc2n[nH]c(=O)c3ccccc23)ccc1F)N1CCN(C(=O)C2CC2)CC1 [Olaparib] (first compound max 3 µM, partner max 3 µM), the Bliss excess in assay [1] was 0.121; in the assay with WIL2-NS (Non-Cancerous), 0.215; in the assay on LN-18 (Glioblastoma), 0.0366; in [2] it was 0.0867; in assay [3], 0.0029; in assay [4], -0.0186. Besides, the Bliss excess in assay [5] is 0.227; in assay [6], -0.0287; in the assay on MEL-JUSO (Melanoma), -0.0387; in assay [7], -0.0215; in assay [8], 0.0848; in the assay with CHP-212 (Neuroblastoma), 0.222. Besides, the Bliss excess in assay [9] is 0.0654; in assay [10] it was 0.0457; in [11], -0.0082; in assay [12] it was 0.0851; in [13] it was 0.127; in assay [14] it was -0.0432. Besides, the Bliss excess was 0.3 in the assay with TC-71 (Ewing's Sarcoma) and -0.0152 in assay [15].
